Consider four molecules from ChEMBL document CHEMBL6121034, “Expanding the Chemical Space of Reverse Fosmidomycin Analogs” (ACS Med Chem Lett, 2025).

The target of assay [1] is T1, 1-deoxy-D-xylulose 5-phosphate reductoisomerase (Mycobacterium tuberculosis, UniProt P9WNS1).
T1 sequence (P9WNS1 whole entry): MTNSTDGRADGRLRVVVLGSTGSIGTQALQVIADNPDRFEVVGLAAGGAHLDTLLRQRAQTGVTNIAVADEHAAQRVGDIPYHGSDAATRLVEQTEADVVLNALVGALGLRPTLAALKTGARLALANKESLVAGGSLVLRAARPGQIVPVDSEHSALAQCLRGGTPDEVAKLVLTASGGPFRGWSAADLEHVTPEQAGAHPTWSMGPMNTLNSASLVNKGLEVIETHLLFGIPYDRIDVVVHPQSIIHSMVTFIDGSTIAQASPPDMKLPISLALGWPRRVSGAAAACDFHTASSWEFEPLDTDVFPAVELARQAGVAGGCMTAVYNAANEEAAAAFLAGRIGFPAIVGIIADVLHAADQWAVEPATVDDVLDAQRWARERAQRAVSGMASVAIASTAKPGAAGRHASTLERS
The assay can be described thus: Inhibition of recombinant Mycobacterium tuberculosis DXR extracted from Escherichia coli M15 using DXP as substrate by NADPH consumption based photometric assay.

The target in assay [2] is T2, 1-deoxy-D-xylulose 5-phosphate reductoisomerase (Escherichia coli K-12, UniProt P45568).
T2 sequence (P45568 whole entry): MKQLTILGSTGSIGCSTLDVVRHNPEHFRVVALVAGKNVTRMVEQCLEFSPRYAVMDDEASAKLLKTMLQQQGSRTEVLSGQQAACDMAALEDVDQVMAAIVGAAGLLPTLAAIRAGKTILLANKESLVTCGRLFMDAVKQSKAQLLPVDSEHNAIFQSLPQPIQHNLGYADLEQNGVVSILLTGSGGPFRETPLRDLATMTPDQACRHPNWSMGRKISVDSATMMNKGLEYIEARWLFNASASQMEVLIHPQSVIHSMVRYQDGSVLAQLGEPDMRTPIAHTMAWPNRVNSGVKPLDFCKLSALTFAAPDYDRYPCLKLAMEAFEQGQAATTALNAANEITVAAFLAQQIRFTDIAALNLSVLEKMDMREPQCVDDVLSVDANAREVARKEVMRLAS
Nature of the assay: Inhibition of recombinant Escherichia coli DXR extracted from Escherichia coli M15 using DXP as substrate by NADPH consumption based photometric assay.

The target in assay [3] is T3, 1-deoxy-D-xylulose 5-phosphate reductoisomerase, apicoplastic (Plasmodium falciparum (isolate 3D7), UniProt Q8IKG4).
T3 sequence (Q8IKG4 whole entry): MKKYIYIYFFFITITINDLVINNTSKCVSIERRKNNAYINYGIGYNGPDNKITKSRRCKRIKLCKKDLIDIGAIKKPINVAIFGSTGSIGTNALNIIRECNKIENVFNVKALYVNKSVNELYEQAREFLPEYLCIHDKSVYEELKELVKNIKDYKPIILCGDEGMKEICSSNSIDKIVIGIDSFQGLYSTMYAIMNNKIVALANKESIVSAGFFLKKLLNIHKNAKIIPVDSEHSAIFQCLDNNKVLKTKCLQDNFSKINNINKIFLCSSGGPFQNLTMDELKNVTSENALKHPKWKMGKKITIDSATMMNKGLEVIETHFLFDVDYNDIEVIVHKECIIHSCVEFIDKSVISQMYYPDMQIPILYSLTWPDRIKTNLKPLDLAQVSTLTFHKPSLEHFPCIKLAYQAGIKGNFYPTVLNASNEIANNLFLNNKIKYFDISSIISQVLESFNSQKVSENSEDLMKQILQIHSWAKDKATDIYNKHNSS
Nature of the assay: Inhibition of Plasmodium falciparum DXR extracted from Escherichia coli using DXP as substrate by NADPH consumption based photometric assay.

Assay [4] deals with Mycobacterium tuberculosis. Nature of the assay: Antibacterial activity against wild-type Mycobacterium tuberculosis H37Rv incubated for 5 days by CLSI based broth microdilution assay. The assay is classed as functional. The note with it: 120 h, time 5 day. A general note: Broth dilution looks for growth in wells or tubes with falling amounts of substance.
In assay [5] the test system is Escherichia coli. Nature of the assay: Antibacterial activity against Escherichia coli ATCC 25922 […] by CLSI based broth microdilution assay. The class given is functional.
The test system of assay [6] is Plasmodium falciparum. The assay can be described thus: Antiparasitic activity against CQ-sensitive Plasmodium falciparum 3D7 at asexual stage infected in O Rh+ erythrocytes by ELISA. The class given is functional, organism-based. The conditions noted are these: 3D7, Erythrocyte. For orientation: ELISA stands for enzyme-linked immunosorbent assay.
Assay [7] is described as follows: Selectivity ratio of IC50 for antiparasitic activity against CQ-sensitive Plasmodium falciparum 3D7 at asexual stage infected in O Rh+ erythrocytes to IC50 for inhibition of Plasmodium falciparum DXR extracted from Escherichia coli.
The test system of assay [8] is Plasmodium falciparum. Nature of the assay: Antiparasitic activity against multidrug-resistant Plasmodium falciparum Dd2 at asexual stage infected in O Rh+ erythrocytes by ELISA method. The class given is functional, organism-based. The note with it: Dd2, Erythrocyte.
A short description of assay [9]: Selectivity ratio of IC50 for antiparasitic activity against multidrug-resistant Plasmodium falciparum Dd2 at asexual stage infected in O Rh+ erythrocytes to IC50 for inhibition of Plasmodium falciparum DXR extracted from Escherichia coli.
For assay [10], the system named is Escherichia coli. Nature of the assay: Antibacterial activity against Escherichia coli incubated for 20 hrs. The class given is functional.

Values after ≈ are worked out from the molar mass of the structure shown.

In general, IC50 refers to the midpoint of a concentration-inhibition curve. The term MIC denotes the least concentration at which growth counts as inhibited. A low value points to a more susceptible organism. Take `CN(O)C(=O)CSC(c1cccc(OCCCCCCN2C(=O)c3ccccc3C2=O)c1)P(=O)(O)O` (racemic): the IC50 was 1700 nM in [1]; 68 nM in [2]; 97 nM in [3]; over 12000 nM in assay [6]; 9800 nM in assay [8]. The MIC in assay [4] and in assay [5] was over 100 µM in each case. Further, the “Ratio IC50” value is listed as over 120 in [7] and 100 in [9].

`CN(O)C(=O)CSC(c1ccc(OCCCCCCN2C(=O)c3ccccc3C2=O)cc1)P(=O)(O)O` (racemic): the IC50 in [1] amounted to 160 nM; in assay [2], 13 nM; in assay [3] it was 21 nM; in assay [6], 2600 nM; in assay [8], 1900 nM. The MIC in assay [4] and in assay [5] was over 100 µM in each case. Also, the “Ratio IC50” value came to 120 in assay [7] and 90 in assay [9].

As for `CCCCCCOc1ccc(C(SCC(=O)N(C)O)P(=O)(O)O)cc1` (racemic), the IC50 in assay [1] came out at 92 nM; in assay [2], 17 nM; in [3], 48 nM; in [6], 8000 nM; in assay [8], 5800 nM. Moreover, the MIC in [4] and in assay [5] was over 100 µM each time. In addition, the entries for the “Ratio IC50” value in [7] and in assay [9] were 170 and 120, respectively.

In assay [10], `O=CN(O)CCCP(=O)(O)O` [FOSMIDOMYCIN] came in with an MIC of 6.25 µM (≈ 1.14 µg/mL). That is a single-digit micromolar value.
